Test results from PubChem BioAssay (NCI).
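Cells were grown in 96-well plates and exposed to each compound for 48 hours at five concentrations; endpoints were interpolated linearly between bracketing concentrations, or set to the highest concentration if not reached. Here, GI50 denotes the concentration required for 50% inhibition of growth. TGI: total growth inhibition.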

Assays:
Experiment in all cases: NCI-60 cell line screen, 48 h
[1] = system: RXF 393 renal
[2] = system: SK-MEL-28 melanoma
[3] = system: M14 melanoma
[4] = system: SF-268 CNS
[5] = system: CAKI-1 renal
[6] = system: U251 CNS
[7] = system: EKVX NSCLC
[8] = system: OVCAR-5 ovarian
[9] = system: HL-60(TB) leukemia
[10] = system: SF-539 CNS

Compound | GI50 [1] | TGI [1] | GI50 [2] | TGI [2] | GI50 [3] | TGI [3] | GI50 [4] | TGI [4] | GI50 [5] | TGI [5] | GI50 [6] | TGI [6] | GI50 [7] | TGI [7] | GI50 [8] | TGI [8] | TGI [9] | GI50 [10] | TGI [10] | GI50 [9]
C/C1=C\CC[C@@]2(C)O[C@@H]2C[C@@H]2[C@H](C/C(C)=C/CC1)OC(=O)C21CCN=N1 (stereo partly specified) | > 100 µM | > 100 µM | > 100 µM | > 100 µM | > 100 µM | > 100 µM | > 100 µM | > 100 µM | > 100 µM | > 100 µM | > 100 µM | > 100 µM | > 100 µM | > 100 µM | > 100 µM | > 100 µM | > 100 µM | > 100 µM | > 100 µM | –
N#Cc1c(-c2ccc(Cl)cc2)c(-c2ccc(Cl)cc2)nn(CCOC(=O)CCC(=O)O)c1=O | – | 11.9 µM | – | > 85.6 µM | – | 28.5 µM | – | > 72.1 µM | – | 22.9 µM | – | 40.3 µM | – | > 100 µM | – | > 100 µM | 10.5 µM | – | 1.49 µM | –
N#CCc1ccc(/C(C#N)=C2/OC(=N)C(c3ccc(CC#N)cc3)C2=O)cc1 (stereo unspecified) | – | > 100 µM | – | > 100 µM | – | > 100 µM | – | > 100 µM | – | > 100 µM | – | – | – | > 100 µM | – | > 100 µM | > 100 µM | – | > 100 µM | –
CCN(CC)CCCNc1nc2ccccc2c2c(=O)c3cc(Cl)ccc3sc12 | 2.68 µM | 10.8 µM | 1.81 µM | 3.34 µM | 1.94 µM | 3.81 µM | 3.26 µM | 14.3 µM | 4.4 µM | 17.1 µM | 2.04 µM | 4.92 µM | 3.74 µM | 17.3 µM | 2.25 µM | 6.29 µM | 23.2 µM | 1.73 µM | 3.35 µM | 5.03 µM
COc1cc(/C=C/C(=O)C(C(=O)/C=C/c2ccc(OC(=O)CCNc3nnc(C)s3)c(OC)c2)C(=O)CCNc2nnc(C)s2)ccc1OC(=O)CCNc1nnc(C)s1 | 1.3 µM | 3.22 µM | 1.75 µM | 4.02 µM | 3.11 µM | 11 µM | 2.64 µM | 11.2 µM | 2.86 µM | > 34.2 µM | 2.48 µM | 7.35 µM | 3.8 µM | 14.8 µM | 2.89 µM | 7.12 µM | 3.93 µM | 2.43 µM | 6.03 µM | 1.77 µM
CCCCCCCCCCCCCC(=O)OC(/C=C/C(C)C)C(O)C(O)C(OC)C(=O)NC1CCCCNC1=O (stereo unspecified) | – | 3.38 µM | – | 5.11 µM | 2.61 µM | 4.35 µM | – | 3.63 µM | – | 3.81 µM | 2.47 µM | 4.3 µM | – | 11.5 µM | – | 9.63 µM | 10.4 µM | 2.29 µM | 5.22 µM | –
O=c1oc2ccc(F)cc2c(=O)n1-c1ccc(Cl)cc1F | 0.974 µM | 4.48 µM | 0.456 µM | 2.92 µM | 0.594 µM | 4.55 µM | 0.879 µM | 11.7 µM | 0.36 µM | 3.41 µM | 0.868 µM | > 59.8 µM | 1.61 µM | 8.14 µM | 3.73 µM | > 100 µM | 2.73 µM | 0.564 µM | 6.79 µM | 0.578 µM
Oc1ccc2ccccc2c1C(c1ccc(Cl)cc1)c1c(O)ccc2ccccc12 | – | 8.28 µM | – | 15.9 µM | – | 15.2 µM | – | 7.26 µM | – | 9.08 µM | – | 12.9 µM | – | 7.58 µM | – | 12 µM | 4.91 µM | – | 31.4 µM | –
